2 compounds from publication PMC6849348, “Theranostic Application of a Novel G-Quadruplex-Forming DNA Aptamer Targeting Malate Synthase of Mycobacterium tuberculosis” (Molecular Therapy. Nucleic Acids, 2019) can be followed below.

The target of this experiment is MS (malate synthase, GlcB, Rv1837c) (Mycobacterium tuberculosis, UniProt P9WK17). Nature of the experiment: DTNB assay of released CoA-SH at […] nm. The class given is biochemical.
Chain of MS (malate synthase, GlcB, Rv1837c) (P9WK17 whole entry, looked up): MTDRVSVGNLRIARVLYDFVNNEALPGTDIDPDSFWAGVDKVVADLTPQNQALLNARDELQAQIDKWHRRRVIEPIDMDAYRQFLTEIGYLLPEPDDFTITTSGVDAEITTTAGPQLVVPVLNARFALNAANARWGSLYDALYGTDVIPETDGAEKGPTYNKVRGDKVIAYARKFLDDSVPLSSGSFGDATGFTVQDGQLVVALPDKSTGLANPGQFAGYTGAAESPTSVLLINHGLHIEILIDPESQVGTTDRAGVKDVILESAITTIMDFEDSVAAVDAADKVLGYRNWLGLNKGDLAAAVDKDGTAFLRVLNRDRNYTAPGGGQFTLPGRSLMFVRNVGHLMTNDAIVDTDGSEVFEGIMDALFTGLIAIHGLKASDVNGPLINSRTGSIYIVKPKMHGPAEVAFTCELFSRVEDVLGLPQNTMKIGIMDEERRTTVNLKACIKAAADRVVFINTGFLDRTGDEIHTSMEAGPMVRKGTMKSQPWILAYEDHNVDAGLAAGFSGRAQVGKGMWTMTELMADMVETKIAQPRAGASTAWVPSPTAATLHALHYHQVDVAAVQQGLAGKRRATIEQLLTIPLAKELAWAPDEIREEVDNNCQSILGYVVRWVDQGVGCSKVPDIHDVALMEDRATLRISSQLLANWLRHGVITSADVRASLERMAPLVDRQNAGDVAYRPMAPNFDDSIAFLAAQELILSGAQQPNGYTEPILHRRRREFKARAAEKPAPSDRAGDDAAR

Usually IC50 stands for the midpoint of a concentration-inhibition curve. As for `C=C(OP(=O)(O)O)C(=O)O` [phosphoenolpyruvate], the IC50 was determined as 374 µM.

Turning to `O=C(O)C(=O)CBr` [bromopyruvate], the IC50 is 114 µM.
